SMILES strings stand for the structures. Where only a bound is given, the exact number is not on record here.

The target of this assay is T1, TLR8 (Homo sapiens, UniProt Q9NR97).
T1 sequence (Q9NR97 27-1041): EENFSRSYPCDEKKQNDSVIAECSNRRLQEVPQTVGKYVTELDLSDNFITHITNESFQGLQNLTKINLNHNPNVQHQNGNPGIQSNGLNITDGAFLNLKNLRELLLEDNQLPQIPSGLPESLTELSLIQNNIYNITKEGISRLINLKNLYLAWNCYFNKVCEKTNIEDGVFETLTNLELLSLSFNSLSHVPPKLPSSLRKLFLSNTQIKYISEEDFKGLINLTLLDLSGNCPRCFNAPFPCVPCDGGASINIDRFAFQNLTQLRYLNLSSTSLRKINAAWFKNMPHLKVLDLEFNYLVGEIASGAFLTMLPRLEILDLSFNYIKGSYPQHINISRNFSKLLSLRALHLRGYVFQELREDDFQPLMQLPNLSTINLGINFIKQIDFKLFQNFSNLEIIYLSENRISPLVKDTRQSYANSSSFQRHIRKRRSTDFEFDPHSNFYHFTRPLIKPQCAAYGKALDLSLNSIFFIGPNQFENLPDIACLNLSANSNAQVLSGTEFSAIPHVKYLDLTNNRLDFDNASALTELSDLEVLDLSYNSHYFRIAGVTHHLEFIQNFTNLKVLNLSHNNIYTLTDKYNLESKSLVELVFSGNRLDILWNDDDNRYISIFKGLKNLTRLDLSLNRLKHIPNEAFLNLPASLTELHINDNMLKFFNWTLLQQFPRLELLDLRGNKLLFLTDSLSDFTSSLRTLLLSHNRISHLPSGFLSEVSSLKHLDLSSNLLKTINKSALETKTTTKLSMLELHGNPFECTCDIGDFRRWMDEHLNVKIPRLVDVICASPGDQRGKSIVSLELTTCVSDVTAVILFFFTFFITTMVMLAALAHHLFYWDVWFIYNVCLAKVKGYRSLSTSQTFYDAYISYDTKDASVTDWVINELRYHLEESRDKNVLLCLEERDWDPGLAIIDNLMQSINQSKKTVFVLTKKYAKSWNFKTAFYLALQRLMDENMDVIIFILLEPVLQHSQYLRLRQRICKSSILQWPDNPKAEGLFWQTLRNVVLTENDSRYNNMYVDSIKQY
In words: THP-1 TLR8 Antagonist TNFalpha TR-FRET Assay. The class given is cell-based. Conditions: THP-1 cells with R848 agonist, 18-20 hrs; TNFalpha TR-FRET read-out. Further details: endogenous in cells. As to the method:
Cell-based assay: • 1) THP-1cells were cultured in RPMI 1640 with 10% FBS, 10 mM HEPES, 1 mM Sodium Pyruvate, 1% Penicillin-Streptomycin L-glutamine, and 1% Non-Essential Amino Acids; • 2) 3 sets of different passages of THP-1cells in assay media were pooled, counted, and resuspended in the same media as culture media, but with 5% FBS; • 3) Cells were diluted to 100,000 cells/well (30 μl/well) and the R848 agonist was diluted to 25 μM in 10 μl/well in media; • 4) The cell and agonist dilutions were combined and 40 μl/well were added to 384-well flat bottom Greiner assay plates containing test compounds in DMSO, which were Echo pre-spotted at 50 nL per well with a 8 mM top dose and 10 point 1:3 serial dilutions—10 μM final top dose; • 5) The plates were incubated overnight for 18-20 hrs at 37 degrees with 5% CO2; • 6) The plates were then centrifuged at 1000 rpm for 2 min at rt; • 7) 10 μl/well of supernatants were transferred to 384-well low volume white Greiner proxiplates; and • 8) TNFα levels were measured using the TR-FRET assay described below.
• 1) Cisbio Human TNFalpha kit, 20,000 tests (62TNFPEC), and Greiner Bio-One LIA-white TC 384 well small volume plates (cat #784080) were used; • 2) the Anti-TNFalpha Cryptate conjugate and the Anti-TNFalpha XL665 conjugate were diluted 1:20 in Reconstitution Buffer; • 3) a 1:1 mixture of 5 μl/well Anti-TNFalpha Cryptate conjugate and 5 μl/well Anti-TNFalpha XL665 conjugate was prepared; • 4) 10 μl/well HTRF dilution mastermix were added to 10 μl of transferred supernatant samples in proxiplates; • 5) The plates were incubated for 3 hrs at rt in the dark; and • 6) the levels of TNFalpha production was measured using an Envision plate reader (665 nm (emmission)/590 nm (excitation)).
(In general: TR-FRET usually uses a lanthanide donor and a delayed reading to cut background.)
Consider `Cn1ncc2c(N3CCc4c(cnn4CC45CCC(N)(CC4)CC5)C3)nc(N)nc21` [compound 11, 4-(1-((4-aminobicyclo[2.2.2]octan-1-yl)methyl)-6,7-dihydro-1H-pyrazolo[4,3-c]pyridin-5(4H)-yl)-1-methyl-1H-pyrazolo[3,4-d]pyrimidin-6-amine], for which the IC50 worked out at 8.23 µM. To `Cn1ncc2c(N3CCc4nn(CC56CCC(N)(CC5)CC6)cc4C3)nc(N)nc21` [compound 12, 4-(2-((4-aminobicyclo[2.2.2]octan-1-yl)methyl)-6,7-dihydro-2H-pyrazolo[4,3-c]pyridin-5(4H)-yl)-1-methyl-1H-pyrazolo[3,4-d]pyrimidin-6-amine] belongs greater than 10 µM. To `Cc1c2c(nn1CC13CCC(N)(CC1)CC3)CCN(c1nc(N)nc3c1cnn3C)C2` [compound 14, 4-(2-((4-aminobicyclo[2.2.2]octan-1-yl)methyl)-3-methyl-6,7-dihydro-2H-pyrazolo[4,3-c]pyridin-5(4H)-yl)-1-methyl-1H-pyrazolo[3,4-d]pyrimidin-6-amine] belongs greater than 10 µM.

As a reminder, the IC50 is the point on the concentration scale where inhibition reaches its midpoint.
